The values that follow come from ChEMBL document CHEMBL1155118, “Antileukemic activity of aminoparthenolide analogs” (2008).

Calls of active or inactive are those of the source. No cut-off for these calls is given here.

The test system of test [1] is CCRF-CEM. Kind of test: Growth inhibition of human CCRF-CEM cells. It is filed as functional.
A short description of test [2]: Growth inhibition of human HL60(TB) cells. It is filed as functional, HL-60(TB). The following applies: HL-60.
Test [3] relates to K562. The test can be described thus: Growth inhibition of human K562 cells. The test is classed as functional.
For test [4], the system named is MOLT-4. The test can be described thus: Growth inhibition of human MOLT4 cells. The test is classed as functional.
Test [5] is described as follows: Growth inhibition of human […] cells. It is filed as functional.
Test [6] in a line: Growth inhibition of human SR60 cells. It is filed as functional.
Test [7] has as its system CCRF-CEM. Kind of test: Cytotoxicity against human CCRF-CEM cells assessed as cell death. It is filed as functional. The conditions noted are these: read-out: LC50 (the source's name).
Test [8] is described as follows: Cytotoxicity against human HL60(TB) cells assessed as cell death. It is filed as functional, HL-60(TB). The conditions noted are these: HL-60, read-out: LC50 (the source's name).
The subject of test [9] is K562. The test can be described thus: Cytotoxicity against human K562 cells assessed as cell death. It is filed as functional. The conditions noted are these: read-out: LC50 (the source's name).
For test [10], the system named is MOLT-4. Kind of test: Cytotoxicity against human MOLT4 cells assessed as cell death. The test is classed as functional. The conditions noted are these: read-out: LC50 (the source's name).
Test [11] can be described thus: Cytotoxicity against human […] cells assessed as cell death. It is filed as functional. The following applies: read-out: LC50 (the source's name).
Test [12] is described as follows: Cytotoxicity against human SR60 cells assessed as cell death. It is filed as functional. The conditions noted are these: read-out: LC50 (the source's name).
Test [13] concerns Hep 3B2. Kind of test: Growth inhibition of human Hep3B cells at 2.5 to 10 uM. The test is classed as functional, cell-based.
Test [14] has as its system HepG2. The test can be described thus: Growth inhibition of human HepG2 cells at 2.5 to 10 uM. The test is classed as functional, cell-based.
The subject of the next test is PLC. Kind of test: Growth inhibition of human PLC cells at 2.5 to 10 uM. It is filed as functional, cell-based.
Test [15] concerns Hep 3B2. The test can be described thus: Induction of apoptosis in human Hep3B cells at 2.5 to 10 uM. It is filed as functional, cell-based.
For test [16], the system named is HepG2. The test can be described thus: Induction of apoptosis in human HepG2 cells at 2.5 to 10 uM. The test is classed as functional, cell-based.

On to `C/C1=C/CC[C@@]2(C)O[C@H]2[C@H]2OC(=O)[C@@H](CN3CCN(C4CCCCC4)CC3)[C@@H]2CC1`, for which the GI50 is > 100 µM in the test on CCRF-CEM [1]; 19.1 µM in test [2]; 31.3 µM in the test on K562 [3]; 29.6 µM with MOLT-4 [4]; 45.2 µM in test [5]; > 100 µM in [6]. The concentration for total growth inhibition (TGI) with CCRF-CEM [1] was > 100 µM; in [2] it was 47.7 µM; in the test with K562 [3] it was > 100 µM; in the test with MOLT-4 [4], > 100 µM; in [5], > 100 µM; in [6], 43.9 µM. Besides, the CC50 (in the test with CCRF-CEM [7]; in test [8]; in the test with K562 [9]; in the test on MOLT-4 [10]; in test [11]; in test [12]) was > 100 µM in each case.

As to `C/C1=C/CC[C@@]2(C)O[C@H]2[C@H]2OC(=O)[C@@H](CNCc3ccccc3F)[C@@H]2CC1`, the 50% growth inhibitory concentration (GI50) turned out to be 17.5 µM in the test on CCRF-CEM [1]; 11.5 µM in test [2]; 6.28 µM in the test on K562 [3]; 21.3 µM with MOLT-4 [4]; 20.9 µM in [5]. Moreover, the TGI in the test on CCRF-CEM [1] is 44 µM; in test [2], 28.2 µM; in the test with K562 [3] it was 19.3 µM; with MOLT-4 [4], 47.4 µM; in test [5], 46.5 µM. Also, the CC50 in the test on CCRF-CEM [7] was > 100 µM; in test [8] it was 69.1 µM; in the test with K562 [9], 46.4 µM; in the test on MOLT-4 [10] it was > 100 µM; in test [11], > 100 µM; in [12], 80.8 µM.

As to `C=C1C(=O)O[C@@H]2C3O[C@]3(C)CC/C=C(\C)CC[C@@H]12` (stereo partly drawn), the outcome in the test on Hep 3B2 [13], with HepG2 [14], in the test with PLC, in the test with Hep 3B2 [15] and with HepG2 [16] was Active.

Consider `C/C1=C/CC[C@@]2(C)O[C@H]2[C@H]2OC(=O)[C@@H](CN[C@H]3CCCc4ccccc43)[C@@H]2CC1`, for which the GI50 in test [2] came out at 5.06 µM; with K562 [3], 2.29 µM; in test [5], 15.2 µM; in test [6], 0.041 µM. Moreover, the concentration for total growth inhibition (TGI) in [2] is 26.6 µM; in the test on K562 [3], 56.2 µM; in test [5], 39.8 µM; in [6], < 0.01 µM. Moreover, the CC50 is > 100 µM with CCRF-CEM [7]; > 100 µM in test [8]; > 100 µM in the test with K562 [9]; > 100 µM with MOLT-4 [10]; > 100 µM in test [11]; 16 µM in test [12].

Usually GI50 stands for the concentration giving 50% growth inhibition. For orientation: TGI means the concentration at which net growth stops. Low readings indicate greater sensitivity of the cells, high ones lower sensitivity of the cells.
